Test results reported in BigSolDB 2.1.

Settings: in water

N[C@@H](CCC(=O)N[C@@H](CS)C(=O)NCC(=O)O)C(=O)O
Settings | solubility (mole fraction)
278.15 K | 0.00427
283.15 K | 0.00519
288.15 K | 0.00659
293.15 K | 0.00792
298.15 K | 0.00936
303.15 K | 0.0115
308.15 K | 0.0139
313.15 K | 0.0169
318.15 K | 0.0202
